Laboratory results taken from patent publication US11034698B2, “Pyrazolo[ 1,5a]pyrimidine derivatives as IRAK4 modulators” (priority 2017, dated 2021).
pKi: −log10 of the molar value. Read-outs that look alike come from different tables or passages of the source.

Molecular target: human IRAK4 (Homo sapiens (Human), UniProt Q9NWZ3)
Experiment: IRAK4 kinase inhibition, Transcreener fluorescence polarization (ADP)
Assay type: biochemical
In short: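 The enzyme was full-length human IRAK4 with an N-terminal His6 tag, expressed in insect cells. Kinase activity was read as ADP product by Transcreener fluorescence polarization.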

[1] = recombinant full-length His6-IRAK4 1.25 nM, 125 uM ATP, 125 uM peptide, 90 min, ATP Km 642 uM, read-out: IRAK4 Ki

human IRAK4, sequence (Q9NWZ3 whole entry): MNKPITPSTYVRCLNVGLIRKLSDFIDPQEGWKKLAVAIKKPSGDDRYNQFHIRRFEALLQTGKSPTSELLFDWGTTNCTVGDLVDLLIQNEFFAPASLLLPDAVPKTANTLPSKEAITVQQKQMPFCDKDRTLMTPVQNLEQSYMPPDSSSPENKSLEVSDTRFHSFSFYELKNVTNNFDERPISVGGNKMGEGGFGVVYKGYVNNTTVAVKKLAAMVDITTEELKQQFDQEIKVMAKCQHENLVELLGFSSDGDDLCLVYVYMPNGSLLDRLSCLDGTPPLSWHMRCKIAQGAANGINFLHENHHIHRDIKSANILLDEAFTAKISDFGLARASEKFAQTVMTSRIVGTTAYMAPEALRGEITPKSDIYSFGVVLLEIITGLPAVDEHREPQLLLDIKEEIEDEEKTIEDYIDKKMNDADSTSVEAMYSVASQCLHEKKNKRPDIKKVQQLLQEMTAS

SMILES	pKi	pKi [1]
CC1(C)Cc2cc(NC(=O)c3cnn4cccnc34)c(OC[C@@H]3C[C@H]4NCCO[C@@H]4C3)cc2O1 (single isomer, unassigned) [Example 32]	6.14	–
CC1(C)Cc2cc(NC(=O)c3cnn4cccnc34)c(OC[C@H]3C[C@H]4NCCO[C@@H]4C3)cc2O1 (single isomer, unassigned) [Example 33]	6.64	–
Cn1cc(COc2cc3c(cc2NC(=O)c2cnn4cccnc24)CN(C[C@@H](F)C(C)(C)O)C3=O)cn1 [Example 60, (R)—N-(2-(2-Fluoro-3-hydroxy-3-methylbutyl)-6-((1-methyl-1H-pyrazol-4-yl)methoxy)-1-oxoisoindolin-5-yl)pyrazolo[1,5-a]pyrimidine-3-carboxamide]	–	8.96
O=C(Nc1cc2c(cc1N1CCOCC1)C(=O)N(CCN1CCCC1)C2)c1cnn2cccnc12 [Example 93, N-[6-Morpholino-1-oxo-2-(2-pyrrolidin-1-ylethyl)isoindolin-5-yl]pyrazolo[1,5-a]pyrimidine-3-carboxamide]	–	7.66
CC(C)(O)[C@H](F)CN1Cc2cc(NC(=O)c3cnn4cccnc34)c(O[C@H]3C[C@@H](F)C3)cc2C1=O [Example 61, N-[6-(3-Fluorocyclobutoxy)-2-[(2R)-2-fluoro-3-hydroxy-3-methyl-butyl]-1-oxo-isoindolin-5-yl]pyrazolo[1,5-a]pyrimidine-3-carboxamide]	–	9.55
COc1cc2c(cc1NC(=O)c1cnn3cccnc13)CN(C[C@@H](F)C(C)(C)O)C2=O [Example 86, (R)-N-(2-(2-Fluoro-3-hydroxy-3-methylbutyl)-6-methoxy-1-oxoisoindolin-5-yl)pyrazolo[1,5-a]pyrimidine-3-carboxamide]	–	8.89
CC(C)(O)[C@H](F)CN1Cc2cc(NC(=O)c3cnn4cccnc34)c(O[C@H]3CCNC3)cc2C1=O [Example 62, N-[2-[(2R)-2-Fluoro-3-hydroxy-3-methyl-butyl]-1-oxo-6-[(3S)-pyrrolidin-3-yl]oxy-isoindolin-5-yl]pyrazolo[1,5-a]pyrimidine-3-carboxamide]	–	8.04
CC1(C)Cc2cc3c(cc2O1)N1CCN(CCNc2ccn4ncc(c4n2)C(=O)N3)CC1 [Example 45, (5^3E,5^4E)-2^2,2^2-Dimethyl-2^2,2^3-dihydro-3,6-diaza-5(3,5)-pyrazolo[1,5-a]pyrimidina-1(1,4)-piperazina-2(6,5)-benzofuranacyclooctaphan-4-one]	–	6.92
O=C(Nc1cc2c(cc1N1CCOCC1)C(=O)N(C1CC3(COC3)C1)C2)c1cnn2cccnc12 [Example 94, N-[6-Morpholino-2-(2-oxaspiro[3.3]heptan-6-yl)-1-oxo-isoindolin-5-yl]pyrazolo[1,5-a]pyrimidine-3-carboxamide]	–	8.31
CC1(C)Cc2cc(NC(=O)c3cnn4cccnc34)c(OC[C@H]3Cc4ccccc4[C@@H]3N)cc2O1 (single isomer, unassigned) [Example 28]	6.59	–
CN1C[C@@H](COc2cc3c(cc2NC(=O)c2cnn4cccnc24)CC(C)(C)O3)CC1=O (single isomer, unassigned) [Example 25]	7.05	–
CC(C)Oc1cc2c(cc1NC(=O)c1cnn3cccnc13)CN(C[C@@H](F)C(C)(C)O)C2=O [Example 78, N-[2-[(2R)-2-Fluoro-3-hydroxy-3-methyl-butyl]-6-isopropoxy-1-oxo-isoindolin-5-yl]pyrazolo[1,5-a]pyrimidine-3-carboxamide]	–	9.77
CC(C)N1Cc2cc(NC(=O)c3cnn4cccnc34)c(C3CC3)cc2C1=O [Example 97, N-(6-Cyclopropyl-2-isopropyl-1-oxoisoindolin-5-yl)pyrazolo[1,5-a]pyrimidine-3-carboxamide]	–	8.28
CNc1cc2c(cc1NC(=O)c1cnn3cccnc13)CN(C[C@@H](F)C(C)(C)O)C2=O [Example 91, N-[2-[(2R)-2-Fluoro-3-hydroxy-3-methyl-butyl]-6-(methylamino)-1-oxo-isoindolin-5-yl]pyrazolo[1,5-a]pyrimidine-3-carboxamide]	–	6.55
CC(C)(O)[C@H](F)CN1Cc2cc(NC(=O)c3cnn4cccnc34)c(OC3CC3)cc2C1=O [Example 77, (R)—N-(6-Cyclopropoxy-2-(2-fluoro-3-hydroxy-3-methylbutyl)-1-oxoisoindolin-5-yl)pyrazolo[1,5-a]pyrimidine-3-carboxamide]	–	9.20
Cc1oncc1CN1CCN(c2cc3c(cc2NC(=O)c2cnn4cccnc24)CC(C)(C)O3)CC1 [Example 12, N-(2,2-Dimethyl-6-(4-((5-methylisoxazol-4-yl)methyl)piperazin-1-yl)-2,3-dihydrobenzofuran-5-yl)pyrazolo[1,5-a]pyrimidine-3-carboxamide]	–	8.28
C[C@@H]1C[C@@H]2CN(c3cc4c(cc3NC(=O)c3cnn5cccnc35)CN(C[C@@H](F)C(C)(C)O)C4=O)CCN2C1 (single isomer, unassigned) [Example 111]	8.00	–
COc1cc2c(cc1NC(=O)c1cnn3ccc(N4CCNCC4)nc13)CC(C)(C)O2 [Example 42, N-(6-Methoxy-2,2-dimethyl-2,3-dihydrobenzofuran-5-yl)-5-(piperazin-1-yl)pyrazolo[1,5-a]pyrimidine-3-carboxamide]	–	7.66
Cc1ccc(-c2cc3c(cc2NC(=O)c2cnn4cccnc24)CN(C[C@@H](F)C(C)(C)O)C3=O)nc1 [Example 146, (R)-N-(2-(2-Fluoro-3-hydroxy-3-methylbutyl)-6-(5-methylpyridin-2-yl)-1-oxoisoindolin-5-yl)pyrazolo[1,5-a]pyrimidine-3-carboxamide]	–	8.09
CC(C)(O)[C@H](F)CN1Cc2cc(NC(=O)c3cnn4cccnc34)c(N3CCC(CC(F)F)CC3)cc2C1=O [Example 96, (R)-N-(6-(4-(2,2-Difluoroethyl)piperidin-1-yl)-2-(2-fluoro-3-hydroxy-3-methylbutyl)-1-oxoisoindolin-5-yl)pyrazolo[1,5-a]pyrimidine-3-carboxamide]	–	8.82
CN(C)c1cc2c(cc1NC(=O)c1cnn3ccc(C(=O)NC4CC4)nc13)CN(C[C@@H](F)C(C)(C)O)C2=O [Example 132, (R)—N^5-Cyclopropyl-N^3-(6-(dimethylamino)-2-(2-fluoro-3-hydroxy-3-methylbutyl)-1-oxoisoindolin-5-yl)pyrazolo[1,5-a]pyrimidine-3,5-dicarboxamide]	–	7.72
CCc1nocc1CN1CCN(c2cc3c(cc2NC(=O)c2cnn4cccnc24)CN(C[C@@H](F)C(C)(C)O)C3=O)CC1 [Example 104, (R)-N-(6-(4-((3-Ethylisoxazol-4-yl)methyl)piperazin-1-yl)-2-(2-fluoro-3-hydroxy-3-methylbutyl)-1-oxoisoindolin-5-yl)pyrazolo[1,5-a]pyrimidine-3-carboxamide]	–	8.30
CC(C)N1Cc2cc(NC(=O)c3cnn4cccnc34)c(N(C)C)c(CO)c2C1=O [Example 151, N-(6-(Dimethylamino)-7-(hydroxymethyl)-2-isopropyl-1-oxoisoindolin-5-yl)pyrazolo[1,5-a]pyrimidine-3-carboxamide]	–	8.09
CC(C)(O)c1cc2c(cc1NC(=O)c1cnn3cccnc13)CN(C[C@@H](F)C(C)(C)O)C2=O [Example 148, (R)—N-(2-(2-Fluoro-3-hydroxy-3-methylbutyl)-6-(2-hydroxypropan-2-yl)-1-oxoisoindolin-5-yl)pyrazolo[1,5-a]pyrimidine-3-carboxamide]	–	7.80
